PubChem BioAssay AID1918996 (Molecular Pharmacology Branch, DTP, NCI, 2023)
Values joined by “and” are separate entries in the source; they are usually repeats but may differ in a detail not shown here. Identical values can stand only once.

Test system: 349418-098-R-PDC complex spheroid growth
Assay: Anticancer human tumor 349418-098-R-PDC patient-derived lung adenocarcinoma cell line growth inhibition [AhR]
Details: for viability, T/C: stronger effect = lower value
Summary of the method: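 Complex tumor spheroids co-cultured with HUVEC and human MSC stroma; AhR antagonists tested in combination with standard-of-care and investigational agents. Top concentration at or near clinical Cmax (else 10 microM), half-log dilutions; growth expressed as percent test/control.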

[1] = curve of first compound, second compound 0.1 µM
[2] = curve of first compound, second compound 0.316 µM
[3] = curve of first compound, second compound 1 µM
[4] = curve of first compound, second compound 3.16 µM
[5] = curve of first compound, second compound 10 µM
[6] = second compound 0.1 µM, first compound 0.0316 µM
[7] = second compound 0.1 µM, first compound 0.1 µM
[8] = second compound 0.1 µM, first compound 0.316 µM
[9] = second compound 0.1 µM, first compound 1 µM
[10] = second compound 0.1 µM, first compound 3.16 µM
[11] = second compound 0.1 µM, first compound 10 µM
[12] = second compound 0.316 µM, first compound 0.0316 µM
[13] = second compound 0.316 µM, first compound 0.1 µM
[14] = second compound 0.316 µM, first compound 0.316 µM
[15] = second compound 0.316 µM, first compound 1 µM
[16] = second compound 0.316 µM, first compound 3.16 µM
[17] = second compound 0.316 µM, first compound 10 µM
[18] = second compound 1 µM, first compound 0.0316 µM
[19] = second compound 1 µM, first compound 0.1 µM
[20] = second compound 1 µM, first compound 0.316 µM
[21] = second compound 1 µM, first compound 1 µM
[22] = second compound 1 µM, first compound 3.16 µM
[23] = second compound 1 µM, first compound 10 µM
[24] = second compound 3.16 µM, first compound 0.0316 µM
[25] = second compound 3.16 µM, first compound 0.1 µM
[26] = second compound 3.16 µM, first compound 0.316 µM
[27] = second compound 3.16 µM, first compound 1 µM
[28] = second compound 3.16 µM, first compound 3.16 µM
[29] = second compound 3.16 µM, first compound 10 µM
[30] = second compound 10 µM, first compound 0.0316 µM
[31] = second compound 10 µM, first compound 0.1 µM
[32] = second compound 10 µM, first compound 0.316 µM
[33] = second compound 10 µM, first compound 1 µM
[34] = second compound 10 µM, first compound 3.16 µM
[35] = second compound 10 µM, first compound 10 µM
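Also: spheroids exposed to agents for seven days before luminescence viability read.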
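For viability, T/C in this document: spheroids also contain HUVEC endothelial cells and human MSC stroma.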

CC1(C)CCC(CN2CCN(c3ccc(C(=O)NS(=O)(=O)c4ccc(NCC5CCOCC5)c([N+](=O)[O-])c4)c(Oc4cnc5[nH]ccc5c4)c3)CC2)=C(c2ccc(Cl)cc2)C1 + Cc1ccccc1N=Nc1ccc(NC(=O)c2ccnn2C)c(C)c1
IC50 [1]: 5800 nM
IC50 [2]: 6030 nM
IC50 [3]: 6540 nM
IC50 [4]: 3540 nM
IC50 [5]: 3260 nM
viability, T/C [6]: 116%
viability, T/C [7]: 111%
viability, T/C [8]: 116%
viability, T/C [9]: 92.9%
viability, T/C [10]: 71.6%
viability, T/C [11]: 31.6%
viability, T/C [12]: 81.5%
viability, T/C [13]: 81.1%
viability, T/C [14]: 64.4%
viability, T/C [15]: 70%
viability, T/C [16]: 86.1%
viability, T/C [17]: 29.1%
viability, T/C [18]: 101%
viability, T/C [19]: 82.1%
viability, T/C [20]: 84.7%
viability, T/C [21]: 79.7%
viability, T/C [22]: 85.7%
viability, T/C [23]: 29.2%
viability, T/C [24]: 76.9%
viability, T/C [25]: 65.9%
viability, T/C [26]: 73.3%
viability, T/C [27]: 66.1%
viability, T/C [28]: 52%
viability, T/C [29]: 26%
viability, T/C [30]: 54.6%
viability, T/C [31]: 59.8%
viability, T/C [32]: 65.1%
viability, T/C [33]: 51.8%
viability, T/C [34]: 52%
viability, T/C [35]: 25.9%

CC1(C)CCC(CN2CCN(c3ccc(C(=O)NS(=O)(=O)c4ccc(NCC5CCOCC5)c([N+](=O)[O-])c4)c(Oc4cnc5[nH]ccc5c4)c3)CC2)=C(c2ccc(Cl)cc2)C1 + CC(CO)NC(=O)c1cc(-c2ccc(Cl)cc2)nn(-c2cnn(C)c2)c1=O
IC50 [1]: 6640 nM
IC50 [2]: 4530 nM
IC50 [3]: 5470 nM
IC50 [4]: 3020 nM
IC50 [5]: < 31.6 nM
viability, T/C [6]: 77.7%
viability, T/C [7]: 89.9%
viability, T/C [8]: 96.2%
viability, T/C [9]: 76.9%
viability, T/C [10]: 82.5%
viability, T/C [11]: 32.2%
viability, T/C [12]: 85.2%
viability, T/C [13]: 81.1%
viability, T/C [14]: 70.2%
viability, T/C [15]: 66.9%
viability, T/C [16]: 65.9%
viability, T/C [17]: 27.8%
viability, T/C [18]: 89.3%
viability, T/C [19]: 97.4%
viability, T/C [20]: 80%
viability, T/C [21]: 65%
viability, T/C [22]: 79.2%
viability, T/C [23]: 28.2%
viability, T/C [24]: 80%
viability, T/C [25]: 86.8%
viability, T/C [26]: 77%
viability, T/C [27]: 71.4%
viability, T/C [28]: 49%
viability, T/C [29]: 24%
viability, T/C [30]: 45%
viability, T/C [31]: 54.1%
viability, T/C [32]: 48.9%
viability, T/C [33]: 48.5%
viability, T/C [34]: 48.2%
viability, T/C [35]: 26.6%

NS(=O)(=O)OCC1CC(n2ccc3c(NC4CCc5ccccc54)ncnc32)CC1O (configuration not stated)
viability, T/C (compound 0.0316 µM): 94% and 96.6% and 72.3%
viability, T/C (compound 0.1 µM): 96.1% and 79.4% and 73.2%
viability, T/C (compound 0.316 µM): 72.6% and 35.4% and 34.8%
viability, T/C (compound 1 µM): 27.8% and 25.5% and 21.3%
viability, T/C (compound 3.16 µM): 15.2% and 12.5% and 14%
viability, T/C (compound 10 µM): 6.38% and 8.08% and 8.54%
IC50 (curve of compound): 572 nM and 231 nM and 199 nM

Nc1ccccc1NC(=O)c1ccc(CNC(=O)OCc2cccnc2)cc1 + CC(CO)NC(=O)c1cc(-c2ccc(Cl)cc2)nn(-c2cnn(C)c2)c1=O
IC50 [1]: 873 nM
IC50 [2]: 1050 nM
IC50 [3]: 1060 nM
IC50 [4]: 1000 nM
IC50 [5]: 438 nM
viability, T/C [6]: 82.8%
viability, T/C [7]: 110%
viability, T/C [8]: 73.4%
viability, T/C [9]: 45.7%
viability, T/C [10]: 23.3%
viability, T/C [11]: 7.92%
viability, T/C [12]: 114%
viability, T/C [13]: 98.5%
viability, T/C [14]: 81.7%
viability, T/C [15]: 51.4%
viability, T/C [16]: 22.7%
viability, T/C [17]: 6.83%
viability, T/C [18]: 104%
viability, T/C [19]: 104%
viability, T/C [20]: 80.9%
viability, T/C [21]: 50.8%
viability, T/C [22]: 23.9%
viability, T/C [23]: 7.01%
viability, T/C [24]: 79.5%
viability, T/C [25]: 104%
viability, T/C [26]: 65.4%
viability, T/C [27]: 52.9%
viability, T/C [28]: 22.1%
viability, T/C [29]: 7.39%
viability, T/C [30]: 54.1%
viability, T/C [31]: 68.4%
viability, T/C [32]: 50.7%
viability, T/C [33]: 39.8%
viability, T/C [34]: 18.8%
viability, T/C [35]: 5.36%

O=C(C=Cn1cnc(-c2cc(C(F)(F)F)cc(C(F)(F)F)c2)n1)NNc1cnccn1 + Cc1cncc(-c2nc(NCCc3c[nH]c4ccccc34)c3ncn(C(C)C)c3n2)c1
IC50 [1]: 61.5 nM
IC50 [2]: 78.7 nM
IC50 [3]: 50.2 nM
IC50 [4]: < 9.49 nM
IC50 [5]: < 9.49 nM
viability, T/C (second compound 0.1 µM, first compound 0.00949 µM): 109%
viability, T/C (second compound 0.1 µM, first compound 0.03 µM): 76.7%
viability, T/C (second compound 0.1 µM, first compound 0.0949 µM): 34.4%
viability, T/C (second compound 0.1 µM, first compound 0.3 µM): 10.9%
viability, T/C (second compound 0.1 µM, first compound 0.949 µM): 7.84%
viability, T/C (second compound 0.1 µM, first compound 3 µM): 4.75%
viability, T/C (second compound 0.316 µM, first compound 0.00949 µM): 103%
viability, T/C (second compound 0.316 µM, first compound 0.03 µM): 89.4%
viability, T/C (second compound 0.316 µM, first compound 0.0949 µM): 42.3%
viability, T/C (second compound 0.316 µM, first compound 0.3 µM): 11.7%
viability, T/C (second compound 0.316 µM, first compound 0.949 µM): 7.07%
viability, T/C (second compound 0.316 µM, first compound 3 µM): 4.9%
viability, T/C (second compound 1 µM, first compound 0.00949 µM): 95.8%
viability, T/C (second compound 1 µM, first compound 0.03 µM): 69.8%
viability, T/C (second compound 1 µM, first compound 0.0949 µM): 25.5%
viability, T/C (second compound 1 µM, first compound 0.3 µM): 9.9%
viability, T/C (second compound 1 µM, first compound 0.949 µM): 9.14%
viability, T/C (second compound 1 µM, first compound 3 µM): 5.61%
viability, T/C (second compound 3.16 µM, first compound 0.00949 µM): 31.8%
viability, T/C (second compound 3.16 µM, first compound 0.03 µM): 20.6%
viability, T/C (second compound 3.16 µM, first compound 0.0949 µM): 14.7%
viability, T/C (second compound 3.16 µM, first compound 0.3 µM): 8.17%
viability, T/C (second compound 3.16 µM, first compound 0.949 µM): 7.95%
viability, T/C (second compound 3.16 µM, first compound 3 µM): 5.5%
viability, T/C (second compound 10 µM, first compound 0.00949 µM): 3.16%
viability, T/C (second compound 10 µM, first compound 0.03 µM): 2.76%
viability, T/C (second compound 10 µM, first compound 0.0949 µM): 2.56%
viability, T/C (second compound 10 µM, first compound 0.3 µM): 2.42%
viability, T/C (second compound 10 µM, first compound 0.949 µM): 1.78%
viability, T/C (second compound 10 µM, first compound 3 µM): 1.96%

O=C(C=Cc1cccc(S(=O)(=O)Nc2ccccc2)c1)NO + CC(CO)NC(=O)c1cc(-c2ccc(Cl)cc2)nn(-c2cnn(C)c2)c1=O
IC50 [1]: 572 nM
IC50 [2]: 615 nM
IC50 [3]: 638 nM
IC50 [4]: 567 nM
IC50 [5]: 445 nM
viability, T/C [6]: 85.8%
viability, T/C [7]: 94%
viability, T/C [8]: 69.8%
viability, T/C [9]: 30%
viability, T/C [10]: 8.25%
viability, T/C [11]: 1.75%
viability, T/C [12]: 110%
viability, T/C [13]: 101%
viability, T/C [14]: 75.5%
viability, T/C [15]: 31.5%
viability, T/C [16]: 7.87%
viability, T/C [17]: 1.86%
viability, T/C [18]: 99.8%
viability, T/C [19]: 109%
viability, T/C [20]: 77%
viability, T/C [21]: 31.8%
viability, T/C [22]: 8.85%
viability, T/C [23]: 1.91%
viability, T/C [24]: 90.7%
viability, T/C [25]: 102%
viability, T/C [26]: 68.4%
viability, T/C [27]: 30.1%
viability, T/C [28]: 7.44%
viability, T/C [29]: 1.82%
viability, T/C [30]: 72.7%
viability, T/C [31]: 82.5%
viability, T/C [32]: 53.6%
viability, T/C [33]: 32.1%
viability, T/C [34]: 7.16%
viability, T/C [35]: 1.98%
